Here are results for three molecules from paper PMC11500415, “Chemical inhibition of stomatal differentiation by perturbation of the master-regulatory bHLH heterodimer via an ACT-Like domain” (Nature Communications, 2024).

Where “and” joins values, the source holds several entries; their conditions need not be identical. Equal values may be shown once.

The target of data set [1] is T1, SCRM-MUTE (Arabidopsis thaliana, UniProt Q9M8K6).
T1 construct: MUTE (1-202); GST (N, cleaved yes); made in house; host or cells: E. coli BL21
T1 sequence (Q9M8K6 1-202): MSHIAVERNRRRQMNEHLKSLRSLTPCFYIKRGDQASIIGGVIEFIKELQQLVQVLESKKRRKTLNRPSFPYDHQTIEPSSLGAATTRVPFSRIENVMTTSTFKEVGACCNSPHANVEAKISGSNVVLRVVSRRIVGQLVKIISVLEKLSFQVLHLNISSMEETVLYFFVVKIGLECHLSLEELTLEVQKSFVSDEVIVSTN
The data set can be described thus: BLI of SCRM-MUTE interaction in presence of compound. The class given is binding, A. thaliana. Conditions: for effect on the SCRM-MUTE heterodimerization (in words): BLI and ITC (Supplementary Fig. 9, Supplementary Tables 2, 3); for Response: BLI, GST-SCRM loaded, in nm (unit assumed). An excerpt:
A. thaliana SCRM (1-494), ΔNSPCH (98-364), MUTE (1-202), ΔNFAMA (190-414), MUTEΔC (1-114), MUTER133A_R134A, MUTEE162A_E163A, MUTER133A_R134A_E162A_E163A, SCRM-ACTL (405-494), MUTE-ACTL (114-202), SPCH-ACTL (285-364), FAMA-ACTL (306-414), MUTE_ACTLR133A_R134A, MUTE_ACTLE162A_E163A, MUTE_ACTLR133A_R134A_E162A_E163A were cloned into pGEX-4T-1 vector with an N-terminal GST tag and a thrombin cleavage sequence. For protein expression, the constructs were transformed into E. coli strain BL21. For each transformant, a single colony was selected and incubated in 10 ml LB liquid media. The overnight-incubated E. coli suspensions were transferred to 1 L LB medium and incubated at 37 °C for around 2 h until the OD600 reached 0.4–0.6. The isopropyl β-D-1-thiogalactopyranoside ([…] of final concentration) was added to the cultures and the strains were incubated at 22 °C for a further 18 h. GST-fused proteins were purified using glutathione agarose resin. The soluble portion of the cell lysate was loaded onto a GST-Sepharose column. Nonspecifically bound proteins were removed by washing the column with 20 mM Tris pH 8.0, 200 mM NaCl. The bound GST-fused protein was eluted with 10 mm glutathione and 20 mM Tris pH 8.0, 200 mM NaCl. The GST-fused proteins were exchanged with phosphate-buffered saline buffer, and then the solution was treated with 50 μg of thrombin for 10–12 h at 16 ^οC. The GST portion of the protein was cleaved during thrombin digestion, and then the whole solution was reloaded onto the glutathione S-transferase column to obtain pure protein. The purified proteins were further purified by gel filtration on a Superdex-200 (GE) column using fast protein liquid chromatography and phosphate buffer (pH 7.2) as the eluent. The purity of the protein was checked by SDS-PAGE. For detailed lists of oligo DNA and plasmid information, see Supplementary Tables 5, 6, respectively.
The binding affinities of SCRM to MUTE / MUTER133A_R134A / MUTEE162A_E163A / MUTER133A_R134A_E162A_E163A in presence and absence of Stomidazolone (3) and its analogues (AYSJ1059 (5) and AYSJ1061 (6)), and Stomidazolone / AYSJ1059 / AYSJ1061 interactions with GST-tagged SCRM, MUTE, SPCH, FAMA, MUTE ΔACTL, MUTE_ACTL, SCRM_ACTL, SPCH_ACTL and FAMA_ACTL, MUTER133A_134A, MUTEE162A_E163A, MUTER133A_R134A_E162A_E163A were measured using the Octet Red96 system (ForteBio, Pall Life Sciences) following the manufacturer’s protocols. The optical probes coated with anti-GST were first loaded with 500 nM GST tagged proteins before kinetic binding analyses. The experiment was performed in 96-well plates maintained at 30 °C. Each well was loaded with 200 μL reaction volume for the experiment. The binding buffer used in these experiments contained 1× PBS supplemented with 2% DMSO, 0.02% Tween20. The concentrations of the Stomidazolone as the analyte in the binding buffer were 100, 50, 25, 12.5, 6.25, 3.12, and 1.56 μM. There was no binding of the analytes to the unloaded probes as shown by the control wells. Binding kinetics to all seven concentrations of the analytes were measured simultaneously using default parameters on the instrument. The data were analyzed using the Octet data analysis software. The association and dissociation curves were fit with the 1:1 homogeneous ligand model. The kobs (observed rate constant) values were used to calculate Kd, with steady-state analysis of the direct binding. See Supplementary Table 3 for details.

Data set [2] in a line: Stability with acid or base in organic solvent. Conditions: 1,2-dichloroethane, 40 °C, 3 h. The data set is classed as physicochemical. The source says: To examine the stability of Stomidazolone and identify any degraded products (if unstable), we treated Stomidazolone with an acid or a base. […] The major degraded product under basic conditions was isolated with gel-permeation chromatography (GPC) in 48% yield. The product, which we designated as lzx103 (compound 4), was identified as (phenylsulfonyl)benzimidamide[39] through ^1H and ^13C NMR analyses (Supplementary Fig. 3a, Supplementary Data 1). […]
show any biological activity on stomatal development (see Revised Fig. S3), thus ruling out the possibility that the inhibition of stomatal differentiation is attributable to the degradation product rather than Stomidzaolone itself. The yield of Izx103 was determined through isolation. Please see the schematics below (presented as Fig. S3). These new findings are described in detail in our Revised Results section (see Page 6 "Stability of […]
with CH COOH (3.1 equiv.) HN […]
with NaOH (3.1 equiv.) NH2 […]
The authors should also provide a better 13C NMR spectrum of the compound in the SI, the current copy features rather weak signal intensities and some signals can only be suspected.
We re-synthesized Stomidazolone and substituted with a better 13C NMR spectrum of Stomidazolone in our revised Document S1. Thank you.
Finally, it should be mentioned in the MS right from the beginning that the compound is a racemic mixture (see also point 2 for this).
We sincerely appreciate Reviewer 2 for raising an important point. Please see our […]
observed effects are caused by Stomidazolone-mediated modulation of MUTE function. The authors use SIM1 during the plant assays which is however not an optimal control as it is not […]
in the biochemical assays, while active compounds are in contrast active in both assay types.
An almost optimal control for these phenotypic and biochemical assays in my view are the two enantiomers of Stomidazolone. […]

Consider `Cc1ccc(C2(NS(=O)(=O)c3ccccc3)N=C(c3ccccc3)C(=O)N2S(=O)(=O)c2ccccc2)cc1` (stereo not shown) [AYSJ1059], for which the “effect on the SCRM-MUTE heterodimerization (in words)” value in data set [1] was “minimal effects”.
On the same count and under the same terms, for `O=C1C(c2ccccc2)=NC(NS(=O)(=O)c2ccccc2)(c2ccc(Br)cc2)N1S(=O)(=O)c1ccccc1` (stereo not shown) [AYSJ1061] the value was “minimal effects”.
Regarding `O=C1C(c2ccccc2)=NC(NS(=O)(=O)c2ccccc2)(c2ccccc2)N1S(=O)(=O)c1ccccc1` (stereo not shown) [Stomidazolone], the “stability under acidic conditions” value in data set [2] (3 equiv. of acetic acid) is given as “stable”. The “stability under basic conditions” value in data set [2] (3 equiv. of sodium hydroxide) was “completely degraded”. Also, in data set [2] (CH3COOH (3.1 equiv.)), the “recovered by 1H NMR analysis” value came out at 93%. For the same molecule, the Response was 0.031 in data set [1] (MUTE+Stomid Conc. 78 nM); 0.0213 in data set [1] (MUTE+Stomid Conc. 78 nM, listed as Stomid); 0.0603 and 0.0323 in data set [1] (MUTE+Stomid Conc. 156 nM); 0.0687 and 0.078 in data set [1] (MUTE+Stomid Conc. 312.5 nM); 0.1313 and 0.1154 in data set [1] (MUTE+Stomid Conc. 625 nM); 0.2145 and 0.1812 in data set [1] (MUTE+Stomid Conc. 1250 nM). For the same molecule, the Response in data set [1] (MUTE+Stomid Conc. 2500 nM) was 0.2742 and 0.2312; in data set [1] (MUTE+Stomid Conc. 5000 nM), 0.2812 and 0.3134.
